# Patent publication EP0840727B1, “3-HYDROXY-2(1H)-[…] AGENTS” (priority 1995, dated 1997)
# Marks after values point to notes of the source that are not given here.
# Assays:
# [1] = In vivo acute toxicity test of injected ligands in mice
# Procedure: The test of acute toxicity of novel and comparative ligands was carried out as follows. Groups of five mice were each given a single i.p. injection of […] of ligand and a day for 10 days or given two i.p. injections of […] in 8 hours. The ligand was dissolved in 0.5 to 1.0 ml of saline at pH 7 to 8. After a period of observation, the mice were killed; selected tissues were removed and fixed for histopathological examination; and unusual findings at autopsy were recorded. […]
# [2] = Promoting excretion of U(VI) in mice by injected ligand; format: in vivo
# Source text: Animal studies were completed using methods detailed in Radiation Protection Dosimetry, in press, P. W. Durbin et al., "In Vivo Chelation of Am(III), Pu(IV), Np(V) and U(VI) in Mice by TREN-(Me-3,2-HOPO)"; Radiation Protection Dosimetry, 17, No. 1, 1989, p. 351, P. W. Durbin et al., "Removal of ^238Pu(IV) from Mice by Polycatechoylate, -Hydroxamate or -Hydroxypyridinonate Ligands"; Radiation Research, 99, 1984, p. 85, P. W. Durbin et al., "Specific Sequestering Agents for the Actinides ..."; Radiation Research, 99, 1984, p. 106, P. W. Durbin et al., "Removal of Pu and Am from Beagles and Mice ..."; Radiation Research, 81, 1980, p. 170, R. D. Lloyd et al., and P. W. Durbin et al., "Specific Sequestering Agents for the Actinides ...". The foregoing articles are hereby incorporated by reference.
# The ^232U was obtained from the Isotope Products Laboratory, Burbank, CA, and ^234,235U was obtained as U metal from long-held LBL storage. The two U sources were combined and dissolved in 6N HNO3, dried, and redissolved in 0.1 N HCl. The daughter radioactivities were removed by elution from a Dowex-50X4 column (22 cm length, 0.7 cm diameter, 1.5 mL·min^-1 flow rate) with 3.2N HCl. The U fractions (previously identified by a trial run with ^234,235U alone) were combined, dried, and redissolved in 0.14M NaCl at pH 5.5.
# One of the comparative chelating agents TREN-Me-3,2-HOPO, was also tested for effectiveness in promoting excretion of ^241Am(III), ^237Np(V), and ^232U(VI) by injection into mice, as follows: Mice, in groups of five, each received an intravenous injection of (a) 1100 Bq of ^241AM(III) in 0.2 mL of citrate buffer, (b) 150 Bq of ^232UO2Cl2 plus 3.6 mg of ^235UO2Cl2 in 0.2 mL of saline, or (c) 200 Bq of ^237NpO2Cl (7.5 mg of ^237NpO2Cl) in 0.2 mL of saline. Three to five minutes later, […] of TREN-Me-3,2-HOPO was injected intraperitoneally in 0.5 mL of saline. The mice were killed 24 hours after the actinide injection, frozen, and dissected after partial thawing. The skeleton, soft tissues, and separated excreta were radioanalyzed by counting the ^241Am gamma rays, or the alpha particles emitted by ^237Np or ^232U (and its ingrowing daughters). Removal of those actinides from mice by injected TREN-Me-3,2-HOPO is summarized in Table 5, which also includes data for mice similarly treated with CaNa3-DTPA and for actinide-injected controls. […] The structure of Am(III)-TREN-Me-3,2-HOPO is considered to resemble that of the Gd(III) complexes (see example 20). Complexation of the fraction of Np(V) that is reduced in vivo to Np(IV) is considered to resemble that of Pu(IV). Complexation of U(VI) is considered to take place through binding to UO2^2+.
# [3] = protocol I, 100 µmol kg^-1 x 10 daily i.p., study length 11 d
# [4] = protocol I, 100 µmol kg^-1 x 10 daily i.p., study length 21 d
# [5] = protocol II, 500 µmol kg^-1 x 2 in 8 h, study length 8 d
# [6] = U(VI), ligand 30 mmol.kg-1 i.p at 3 to 5 min after actinide i.v., kill at 24 h
# [7] = U(VI), ligand 30 mmol.kg-1 i.p at 3 to 5 min after actinide i.v., kill at 24 h, pooled
structure (smiles),measurement,setting,value
"Cn1ccc(C(=O)NCCN(CCNC(=O)c2ccn(C)c(=O)c2O)CCNC(=O)c2ccn(C)c(=O)c2O)c(O)c1=O [TREN-Me-3,2-HOPO, N,N,N,-Tris[(3-hydroxy-1-methyl-2-oxo-1,2-dihydropyridin-4-yl)carboxamidoethyl]-amine]",toxicity (in words),[1]; even at the relatively high dosage of 2x500 µmol/kg in 8 hours,low toxicity
same,no. of survivors,[1]; [3],5
same,percent control mean + SD: body weight,[1]; [3],102 ± 1 percent control
same,percent control mean + SD: plasma urea N,[1]; [3],112 ± 10 percent control
same,no. of survivors,[1]; [4],5
same,percent control mean + SD: body weight,[1]; [4],106 ± 4 percent control
same,percent control mean + SD: plasma urea N,[1]; [4],120 ± 9 percent control
same,no. of survivors,[1]; [5],19
same,percent control mean + SD: body weight,[1]; [5],101 ± 4 percent control
same,percent control mean + SD: plasma urea N,[1]; [5],119 ± 15 percent control
same,"percent of injected actinide ± SD at 24 h, tissues: kidneys",[2]; [6],"9.4 ± 6.0^d,e percent of injected actinide"
same,"percent of injected actinide ± SD at 24 h, tissues: skeleton",[2]; [6],16 ± 2.4% of injected actinide
same,"percent of injected actinide ± SD at 24 h, tissues: soft tissue",[2]; [6],1.6 ± 0.3% of injected actinide
same,"percent of injected actinide ± SD at 24 h, whole body",[2]; [6],"27 ± 8.5^d,e percent of injected actinide"
same,"percent of injected actinide ± SD at 24 h, tissues: liver","[2]; U(VI), ligand 30 mmol.kg-1 i.p at 3 to 5 min after actinide i.v., kill at 24 h, livers of some groups pooled",0.6 ± 0.3% of injected actinide
same,"percent of injected actinide at 24 h, excreta: feces and GI contents",[2]; [7],2.3% of injected actinide
same,"percent of injected actinide at 24 h, excreta: urine 0-24 h",[2]; [7],70% of injected actinide
same,U burden in the kidneys compared with controls (in words),[2]; intraperitoneally three to five minutes after actinide,more than one-half of the U burden in the kidneys was removed
